Structures are written as SMILES. pIC50: −log10 of the molar value.

For the first test, the target named is T1, human Bradykinin B1 receptor (Homo sapiens, UniProt P46663).
T1 construct: host or cells: CHO-K1
T1 sequence (P46663 1-353): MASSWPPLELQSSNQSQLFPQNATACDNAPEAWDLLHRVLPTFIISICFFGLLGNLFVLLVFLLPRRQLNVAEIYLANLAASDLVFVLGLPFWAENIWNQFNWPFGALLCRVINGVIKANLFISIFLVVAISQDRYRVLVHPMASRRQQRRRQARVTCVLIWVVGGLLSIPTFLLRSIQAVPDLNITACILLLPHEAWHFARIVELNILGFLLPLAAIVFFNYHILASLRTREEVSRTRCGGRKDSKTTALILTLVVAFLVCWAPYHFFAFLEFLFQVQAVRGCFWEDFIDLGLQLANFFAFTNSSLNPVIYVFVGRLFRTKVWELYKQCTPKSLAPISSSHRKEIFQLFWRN
As to the kind of experiment: Calcium flux Assay (FLIPR) with recombinant CHO-K1 cells expressing human Bradykinin B1 receptor, in presence (hB1 IC50) or absence (hB1 free IC50) of 0.1% BSA. Type of test: cell-based. The settings on record: in absence of 0.1% BSA, read-out: hB1 free IC50. The protocol: The potency to inhibit the Bradykinin B1 receptor was determined for the compounds of this invention in a cell-based fluorescent calcium-mobilisation assay. The assay measures the ability of test compounds to inhibit Bradykinin B1 receptor agonist-induced increase of intracellular free Ca^2+ in the cell line expressing Bradykinin B1 receptor. […] The change of the intracellular Ca^2+ concentration is monitored with a fluorescent plate reader FLIPR TETRA® (Molecular Devices).
Calcium flux Assays (FLIPR) with cells expressing human Bradykinin B1 receptor (hB1)
CHO-K1 cell line expressing human Bradykinin B1 receptor was purchased from Euroscreen (Gosselies, Belgium, with reference name hB1-D1). The cells were grown in Nutrient Mixture Ham's F12 (Sigma) containing 10% Foetal bovine serum (Sigma) and 400 μg/mL G418 (Sigma), 5 μg/mL puromycim (Sigma). […]
Cells were seeded in a volume of 50 μL in medium without antibiotics and incubated overnight in a humidified atmosphere with 5% CO2 at 37° C. […] The calcium indicator loaded cells were incubated at 37° C. for 2 hrs. Extracellular dye was then removed and each well was filled with 45 μL of assay buffer. Cell plates were kept in dark until used. Compound examples were assayed at 8 concentrations in triplicate. Serial 10-fold dilutions in 100% DMSO were made at a 100-times higher concentration than the final concentration, and then diluted 1:10 in assay buffer. 5 μL of each diluted compound was added to the well of cell plates (yielding final concentration with 1% DMSO), and incubated for 30 min at 28° C. before the addition of Bradykinin B1 receptor agonist on the FLIPR instrument.
A peptide antagonist Lys-(Des-Arg-Leu)-Bradykinin (Bachem, Brackley) at 20 µM was used to determine the full inhibition as control.
Peak fluorescence was used to determine the response to agonist obtained at each concentration of compound examples by the following equation:
% Response=100*(RFU(compound)−RFU(control))/(RFU(DMSO)−RFU(control)) • RFU means relative fluorescence units. • Control means full inhibition by the peptide antagonist Lys-(Des-Arg-Leu)-Bradykinin at 20 µM.
The response values were plotted against the logarithm of the compound concentrations. The compound examples were tested in triplicates per plate and mean values were plotted in Excel XLfit to determine IC50 values, percentage of maximal inhibition and the Hill slopes.
For orientation: A change in cytosolic calcium serves as a functional read-out for many receptors and channels.
A word on the pIC50: it is the negative decadic logarithm of the IC50, by convention in mol/L. For the compound `COc1cc(-c2ccc(NC(=O)C3(c4cccc(Cl)c4)CC3)cc2-c2nnn[nH]2)cc(C(F)(F)F)c1` [Example 134, 1-(3-chlorophenyl)-N-[3′-methoxy-2-(1H-tetrazol-5-yl)-5′-(trifluoromethyl)biphenyl-4-yl]cyclopropane carboxamide], the pIC50 was 6.24.
`CCC(F)(F)c1ccc(-c2ccc(NC(=O)C3(c4ccc(OC(F)(F)F)cc4F)CC3)cc2-c2nnn[nH]2)cn1` [Example 287, N-{4-[6-(1,1-difluoropropyl)py-ridin-3-yl]-3-(1H-tetrazol-5-yl)phenyl}-1-[2-fluoro-4-(trifluoromethoxy)phenyl]cyclo-propanecarboxa-mide]: the negative-log IC50 (pIC50) was 8.41.
For the compound `O=C(Nc1ccc(-n2cc(C(F)(F)F)nn2)c(-c2nnn[nH]2)c1)C1(c2ccc(C(F)(F)F)cc2F)CC1` [Example 361, 1-[2-fluoro-4-(trifluoromethyl)phenyl]-N-{3-(1H-tetrazol-5-yl)-4-[4-(trifluoromethyl)-1H-1,2,3-triazol-1-yl]phenyl}cyclopro-panecarboxa-mide], the pIC50 is 6.38.
For the compound `O=C(Nc1ccc(-n2cc(C(F)(F)F)cn2)c(-c2nnn[nH]2)c1)C1(c2cccc(Cl)c2)CC1` [Example 349, 1-(3-Chlorophenyl)-N-{3-(1H-tetrazol-5-yl)-4-[4-(trifluoromethyl)-1H-pyrazol-1-yl]phenyl}cyclopro-panecarboxa-mide], the negative logarithm of the IC50 (pIC50) was 6.23.
With `O=C(Nc1ccc(-c2ccnc(C(F)(F)F)c2)c(-c2nnn[nH]2)c1)C1(c2ccc(F)c(Cl)c2)CC1` [Example 176, 1-(3-chloro-4-fluorophenyl)-N-{3-(1H-tetrazol-5-yl)-4-[2-(trifluoromethyl)pyridin-4-yl]phenyl} cyclopropane-carboxamide], the negative-log IC50 (pIC50) is 6.59.
Still for that read-out and setting: in the case of `Cc1ccc(C2(C(=O)Nc3ccc(-c4ccc(C(F)F)nc4)c(-c4nnn[nH]4)c3)CC2)c(F)c1` [Example 275, N-{4-[6-(difluoromethyl)pyridin-3-yl]-3-(1H-tetrazol-5-yl)phenyl}-1-(2-fluoro-4-methylphenyl)cy-clopropanecar-boxamide] it was 8.07; in that of `Cc1ccc(C2(C(=O)Nc3ccc(-c4ccc(C(F)(F)F)nc4)c(-c4nnn[nH]4)c3F)CC2)c(F)c1` [Example 299, 1-(2-fluoro-4-methylphenyl)-N-{2-fluoro-3-(1H-tetrazol-5-yl)-4-[6-(trifluoromethyl)pyridin-3-yl]phenyl}cyclopro-panecarboxa-mide], 6.62; in that of `CCOc1ccc(-c2ccc(NC(=O)C3(c4ccc(F)c(OC)c4)CC3)cc2-c2nnn[nH]2)cn1` [Example 87, N-[4-(6-ethoxypyridin-3-yl)-3-(1H-tetrazol-5-yl)phenyl]-1-(4-fluoro-3-methoxyphenyl) cyclopropane-carboxamide], 7.22.
On the same count and under the same terms, in the case of `COc1ccc(-c2ccc(NC(=O)C3(c4cc(F)ccc4C)CC3)cc2-c2nnn[nH]2)cc1OC` [Example 255, N-[3′,4′-dimethoxy-2-(1H-tetrazol-5-yl)biphenyl-4-yl]-1-(5-fluoro-2-methylphenyl)cy-clopropanecar-boxamide] it was 6.15.
On to `O=C(Nc1ccc(-c2ccnc(C(F)(F)F)c2)c(-c2nnn[nH]2)c1)C1(c2ccc(F)cc2F)CC1` [Example 178, 1-(2,4-difluorophenyl)-N-{3-(1H-tetrazol-5-yl)-4-[2-(trifluoromethyl)pyridin-4-yl]phenyl} cyclopropane-carboxamide], for which the negative logarithm of the IC50 (pIC50) is 6.54.
Consider `O=C(Nc1ccc(-c2cnc(NC3CC3)nc2)c(-c2nnn[nH]2)c1)C1(c2cccc(Cl)c2)CC1` [Example 185], for which the pIC50 is 6.60.
On the same count and under the same terms, in the case of `Cc1ccc(C2(C(=O)Nc3ccc(-n4cnc(C(F)(F)F)c4)c(-c4nnn[nH]4)c3)CC2)c(F)c1` [Example 367, 1-(2-Fluoro-4-methylphenyl)-N-{3-(1H-tetrazol-5-yl)-4-[4-(trifluoromethyl)-1H-imidazol-1-yl]phenyl}cyclopro-panecarboxa-mide] it was 7.21.
For the compound `CC(C)(C)c1cn(-c2ccc(NC(=O)C3(c4cccc(Cl)c4)CC3)cc2-c2nnn[nH]2)cn1` [Example 400, N-[4-(4-tert-butyl-1H-imidazol-1-yl)-3-(1H-tetrazol-5-yl)phenyl]-1-(3-chlorophenyl)cy-clopropanecarbox-amide], the negative-log IC50 (pIC50) is 7.60.

Staying with this test, now noted: in presence of 0.1% BSA, read-out: hB1 IC50.
Regarding `COc1ccc(-c2c(C)cc(NC(=O)C3(c4cccc(Cl)c4)CC3)cc2-c2nnn[nH]2)cc1OC` [Example 250, 1-(3-Chlorophenyl)-N-[3′,4′-dimethoxy-2-methyl-6-(1H-tetrazol-5-yl)biphenyl-4-yl]cyclopropane carboxamide], the pIC50 is 6.62.
Turning to `CCOc1cncc(-c2ccc(NC(=O)C3(c4cccc(Cl)c4)CC3)cc2-c2nnn[nH]2)c1` [Example 318, 1-(3-chlorophenyl)-N-[4-(5-ethoxypyridin-3-yl)-3-(1H-tetrazol-5-yl)phenyl]cyclopro-panecarboxa-mide], the pIC50 was 7.23.
For the compound `COc1ccc(-c2ccc(NC(=O)C3(c4ccc(F)cc4)CC3(C)C)cc2-c2nnn[nH]2)cc1OC` (stereo not drawn) [Example 6], the negative-log IC50 (pIC50) was 5.86.
For the compound `COc1ccc(-c2ccc(NC(=O)C3(C(F)(F)F)CC3)cc2-c2nnn[nH]2)cc1OC` [Example 34, N-[3′,4′-dimethoxy-2-(1H-tetrazol-5-yl)biphenyl-4-yl]-1-(trifluoromethyl) cyclopropane-carboxamide], the negative-log IC50 (pIC50) is 6.22.
On to `COc1ccc(-c2ccc(NC(=O)C3(c4ccc(F)cc4Cl)CC3)cc2-c2nnn[nH]2)cc1OC` [Example 28, 1-(2-chloro-4-fluorophenyl)-N-[3′,4′-dimethoxy-2-(1H-tetrazol-5-yl)biphenyl-4-yl]cyclopropane carboxamide], for which the pIC50 was 6.86.
As to `CCOc1ccc(-c2ccc(NC(=O)C3(c4ccc(F)c(OC)c4)CC3)cc2-c2nnn[nH]2)cn1` [Example 87, N-[4-(6-ethoxypyridin-3-yl)-3-(1H-tetrazol-5-yl)phenyl]-1-(4-fluoro-3-methoxyphenyl) cyclopropane-carboxamide], the negative-log IC50 (pIC50) was 7.06.
`COc1ccc(-c2ccc(NC(=O)C3(c4cc(F)ccc4C)CC3)cc2-c2nnn[nH]2)cc1OC` [Example 255, N-[3′,4′-dimethoxy-2-(1H-tetrazol-5-yl)biphenyl-4-yl]-1-(5-fluoro-2-methylphenyl)cy-clopropanecar-boxamide]: the pIC50 was 6.34.
For the compound `CCOc1ccc(-c2ccc(NC(=O)C3(C)CC3)cc2-c2nnn[nH]2)cn1` [Example 88, N-[4-(6-ethoxypyridin-3-yl)-3-(1H-tetrazol-5-yl)phenyl]-1-methyl-cyclopropane-carboxamide], the negative-log IC50 (pIC50) is 6.95.
Same read-out and setting: in the case of `COc1ccc(-c2cc(F)c(NC(=O)C3(c4cc(Cl)ccc4F)CC3)cc2-c2nnn[nH]2)cc1` [Example 229, 1-(5-Chloro-2-fluorophenyl)-N-[5-fluoro-4′-methoxy-2-(1H-tetrazol-5-yl)biphenyl-4-yl]cyclopropane carboxamide] it was 5.89.
In the case of `O=C(Nc1cc(-c2nnn[nH]2)c(-c2ccc(C(F)(F)F)nc2)cc1O)C1(c2cc(F)cc(Cl)c2)CC1` [Example 223, 1-(3-chloro-5-fluorophenyl)-N-{2-hydroxy-5-(1H-tetrazol-5-yl)-4-[6-(trifluoromethyl)pyridin-3-yl]phenyl} cyclopropane-carboxamide], the negative-log IC50 (pIC50) is 7.08.
As for `COc1ccc(-c2c(F)cc(NC(=O)C3(c4ccc(F)cc4F)CC3)cc2-c2nnn[nH]2)cc1OC` [Example 235, 1-(2,4-Difluorophenyl)-N-[2-fluoro-3′,4′-dimethoxy-6-(1H-tetrazol-5-yl)biphenyl-4-yl]cyclopropane carboxamide], the pIC50 is 7.27.
On the same count and under the same terms, for `CCOc1ccc(-c2ccc(NC(=O)C3(c4cc(F)cc(OC)c4)CC3)cc2-c2nnn[nH]2)cn1` [Example 103, N-[4-(6-ethoxypyridin-3-yl)-3-(1H-tetrazol-5-yl)phenyl]-1-(3-fluoro-5-methoxyphenyl) cyclopropane-carboxamide] the value was 7.55; for `COc1ccc(-c2ccc(NC(=O)C3(c4cc(F)ccc4Cl)CC3)cc2-c2nnn[nH]2)cc1OC` [Example 30, 1-(2-chloro-5-fluorophenyl)-N-[3′,4′-dimethoxy-2-(1H-tetrazol-5-yl)biphenyl-4-yl]cyclopropane carboxamide], 6.70; for `COc1ccc(-c2ccc(NC(=O)C(C)(C)c3cccc(Cl)c3)cc2-c2nnn[nH]2)cc1OC` [Example 61, 2-(3-chlorophenyl)-N-[3′,4′-dimethoxy-2-(1H-tetrazol-5-yl)biphenyl-4-yl]-2-methyl-propanamide], 5.69.

(Values after patent US20210317092A1 (BAYER PHARMA AKTIENGESELLSCHAFT, priority 2016, published 2021).)
